# Test results as given in patent US11612652B2, “Lipids as synthetic vectors to enhance antigen processing and presentation ex-vivo in dendritic cell therapy” (PDS Biotechnology Corporation, priority 2015, dated 2023).
# How the values were obtained:
# TC1 epithelial cells = assay: DQ-OVA uptake and processing by epithelial cell line; type: cell-based, mouse; conditions: identical conditions as the BMDC
# Experimental: This uptake and processing was inhibited at 4° C. confirming that active cytoskeletal rearrangements are required for this type of uptake. […] The effect of R-DOTAP was concentration dependent with 50 uM showing the greatest effect. To determine if the R-DOTAP enhancement of protein uptake is cell dependent, a mouse epithelial cell line was incubated with DQ-OVA under identical conditions as the BMDC. […] Further, they indicate that this enhancement is selective for dendritic cells and not other, non-antigen presenting cell types.
# TC-1 tumors = assay: Established TC-1 tumor model: tumor microenvironment, tumor volume, ELISPOT; type: in vivo, C57 mice; conditions: Day 19 flow cytometry
# Experimental: C57 mice were divided into the following groups of 8 mice per group: R-DOTAP+HPV16 E7 peptide KF18 ([…]) (SEQ ID NO: 4) , GM-CSF+HPV16 E7 peptide KF18, R-DOTAP, GM-C SF, HPV16 E7 peptide KF18, untreated. 1×10^5 TC-1 tumor cells were injected into the flank of the mice on day 0. The various formulations were administered on Days 12 and 19 after tumor implantation. On day 19 4-5 mice per group were sacrificed and a number of evaluations performed to evaluate the immunology of the tumor microenvironment.
# RF9 specific dextramer staining and flow cytometry were utilized to quantify the number of HPV-specific CD8+ T-cells that had infiltrated into the tumor micro-environment. The study quantified the number of CD8+ T cells specific to the mouse epitope RF9. These CD8+ T cells were measured as a percentage of all immune cells (CD45, CD3 and CD8) present in the tumor. Antigen specific T cells infiltrating into the tumor were measured using RF9 specific dextramers by flow cytometry. […] Data represents mean±SEM of 4-5 mice in each group.
# On Day 19 flow cytometry was used to study the immuno-suppressive tumor microenvironment, specifically the regulatory T cell population. T regulatory cells (CD45+CD3+CD4+CD25+Foxp3+) cells infiltrated into tumors on day 14 and day 19.
# Of critical importance to the clinical efficacy of any immunotherapy is the ratio of immune suppressive cells to tumor targeting CD8+ T cells within the tumor microenvironment. A lower ratio of immune suppressor cells to CD8+ T cells promotes improved prognosis for anti-tumor benefit. […] Cationic lipids appear to promote the preferential expansion of the right phenotype of effector T-cells in preference to Tregs.
# The various formulations were evaluated for their impact on the established TC-1 tumors in the same study. […] Tumor volumes were measured using calipers. The naïve mice group are tumor bearing mice that remained untreated. The HPV16 E7 peptide used in the vaccine is KF18. […]
# In this study, IFN-γ ELISPOT studies were also performed to quantify and understand the “quality” of tumor-specific T-cell generated. […]
# popliteal lymph nodes = assay: Influx of T-cells and total lymphocytes into draining lymph nodes after foot pad injection; type: in vivo, mice
# Experimental: 12 mM R-DOTAP or sucrose as control were injected into the right and eft foot pad respectively of mice and the influx of T-cells and total lymphocytes into the draining lymph nodes were quantified by flow cytometry. In this experiment, 15 hours after vaccination the popliteal lymph nodes were removed and analysis performed. […] Five mice were used per study.
# [1] = tested on: HPV16-specific CD8+ T-cells; assay: IFN-gamma ELISPOT of splenocytes after vaccination with KF18 HPV peptide formulations; type: in vivo, C57 black mice; conditions: vaccinated Day 0 and Day 7, sacrificed Day 14
# Experimental: C57 black mice were vaccinated with various formulations: […]
# Group 1: KF18 HPV peptide ([…]) (SEQ ID NO: 4)
# Group 2: KF18 HPV peptide+R-DOTAP liposomes
# Group 3: KF18 HPV peptide+S-DOTAP liposomes
# Group 4: KF18 peptide+MPL/Alum adjuvant
# 5 mice per group were injected with the various formulations. The mice were vaccinated on Day 0 and Day 7 and sacrificed on Day 14. The splenocytes were removed and ELISPOT studies performed. The splenocytes were stimulated with the peptide […] (RF9) (SEQ ID NO: 5), the HPV16 CD8+ T-cell epitope peptide recognized by the C57 mice. […] An additional example of this effect is observed with the cationic lipid DDA. […] However, it has been reported that in order to induce strong antigen-specific T-cell responses that DDA is used in combination with strong adjuvants (Brandt L. et al, ESAT-6 Subunit Vaccination against Mycobacterium tuberculosis, Infect Immun. 2000 February; 68(2): 791-795).
# popliteal LN = assay: Homing of CFSE labeled adoptively transferred spleen cells with or without pertussis toxin; type: in vivo, B6 mice; conditions: 16 h
# Excerpt: The primary objective of the current experiment was to utilize 5 mice to perform the study described in Example 7 and to visualize the homing of CFSE labeled adoptively transferred cells. The study included a population of cells that had been treated in vitro with pertussis toxin to inactivate chemokine receptors. Pertussis toxin and untreated cells were labeled with two different concentrations of CFSE so that they could be distinguished by flow cytometry. The lymphocytes should be induced to home to lymph nodes.
# Spleen cells were prepared from a single B6 mouse and divided in half. Half of the cells were treated with Pertussis toxin 100 ng/ml for 1 hour at 37° C. and washed. The two cell populations were then labeled with CFSE at two different concentrations so they could be distinguished by flow cytometry, and mixed together. The mix (10^7 cells) was injected i.v. into the tail vein of 5 B6 mice. The mice were then anesthetized and injected in the footpad with either sucrose (right footpad) or R-DOTAP (left footpad, 50 μl, 600 nmoles).
# After 16 h, the mice were sacrificed and the popliteal LN and spleens harvested. The total cells recovered from left and right nodes from each mouse were counted.
smiles,measurement,setting,value
"CCCCCCCC/C=C\CCCCCCCC(=O)OCC(C[N+](C)(C)C)OC(=O)CCCCCCC/C=C\CCCCCCCC (stereo not shown) [R-DOTAP, 1,2-dioleoyl-3-trimethylammonium propane]",DQ-OVA uptake and processing in TC1 epithelial cells,TC1 epithelial cells,only observed in DC and not in TC1 epithelial cells
same,ability to reduce the population of Tregs in tumors,TC-1 tumors,statistical significance was not achieved
same,infiltration of T-cells into the draining lymph node,"popliteal lymph nodes; 12 mM R-DOTAP in foot pad, 15 hours after vaccination, versus sucrose",induced significant infiltration of T-cells into the lymph node
same,lymphocyte infiltration into the lymph nodes over time,"popliteal lymph nodes; 5 hours, 16 hours, 3 days and 4 days",lymphocyte infiltration into the lymph nodes was seen to increase over the 4-day period
same,"HPV-specific CD8+ T-cell response (ELISPOT, RF9 stimulation)",[1],effective in inducing strong HPV-specific CD8+ T-cell responses
same,infiltration of transferred CFSE labeled lymphocytes into lymph node,"popliteal LN; R-DOTAP footpad 50 μl, 600 nmoles, untreated cells",transferred CFSE labeled lymphocytes also infiltrated the lymph node upon R-DOTAP vaccination
same,infiltration of pertussis toxin treated CFSE labeled cells into lymph node,popliteal LN; cells treated with Pertussis toxin 100 ng/ml,this did not occur with the pertussis treated cells
